According to BindingDB's records for doi:10.7270/Q2H993J6 (Pcmd, 2008):

Each compound was assayed against Coagulation factor XI (Homo sapiens, UniProt P03951) (assay: FXIa inhibitor IC50 values, dose response, biochemical, hits from 1536-well screen (AID 846)). Conditions: pH 7.4; 23 °C.
Coagulation factor XI, sequence (P03951 19-387 limits assumed): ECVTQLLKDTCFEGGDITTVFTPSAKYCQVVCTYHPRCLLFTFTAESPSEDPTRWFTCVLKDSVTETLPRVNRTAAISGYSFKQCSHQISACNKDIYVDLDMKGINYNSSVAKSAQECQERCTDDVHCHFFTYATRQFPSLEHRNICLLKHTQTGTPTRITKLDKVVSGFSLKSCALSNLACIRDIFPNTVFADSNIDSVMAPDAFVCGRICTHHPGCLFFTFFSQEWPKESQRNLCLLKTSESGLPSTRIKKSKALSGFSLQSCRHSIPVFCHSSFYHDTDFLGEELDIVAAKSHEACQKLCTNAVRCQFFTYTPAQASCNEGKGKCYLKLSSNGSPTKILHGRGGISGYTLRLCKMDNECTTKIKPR
Coagulation factor XI, sequence (P03951 388-625 limits assumed): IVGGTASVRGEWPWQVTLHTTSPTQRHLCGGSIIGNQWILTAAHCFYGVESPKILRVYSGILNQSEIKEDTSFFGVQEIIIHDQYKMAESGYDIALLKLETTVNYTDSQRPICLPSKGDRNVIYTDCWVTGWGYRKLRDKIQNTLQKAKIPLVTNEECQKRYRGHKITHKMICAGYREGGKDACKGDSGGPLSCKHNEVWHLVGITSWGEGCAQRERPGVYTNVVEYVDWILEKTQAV

Structure (SMILES) | IC50 [µM]
CCOC(=O)Cc1csc(NC(=O)CC(C)(C)CC(=O)O)n1 [5-[[4-(2-ethoxy-2-oxidanylidene-ethyl)-1,3-thiazol-2-yl]amino]-3,3-dimethyl-5-oxidanylidene-pentanoic acid] | > 50
CC(=O)c1ccc(NC(S)=Nc2cccc3cnccc23)cc1 [1-(4-acetylphenyl)-3-(5-isoquinolinyl)thiourea] | > 50
Cc1ccc(C(=O)NNC(=S)NC(=O)COc2ccccc2)cc1 [N-[[(4-methylbenzoyl)amino]carbamothioyl]-2-phenoxyacetamide] | 3
C=C(C)CNC(=S)Nc1cccc(N)n1 | > 50
O=C(NNC(=O)c1cccs1)c1ccc(Br)o1 [5-bromo-N'-(thiophene-2-carbonyl)furan-2-carbohydrazide] | 8.51
CN(Cc1ccccc1)c1nc2c(c(=O)[nH]c(=O)n2C)n1CCCSc1ncccn1 [3-methyl-8-[methyl-(phenylmethyl)amino]-7-(3-pyrimidin-2-ylsulfanylpropyl)purine-2,6-dione] | > 50
Cc1ccc(C(=O)C(=O)c2ccc(C)c(N)c2)cc1N | > 50
Nn1c(C2CCCCC2)nc2ccccc2c1=O [3-azanyl-2-cyclohexyl-quinazolin-4-one] | > 50
O=C(NCc1ccco1)C1CC(c2ccccc2C(F)(F)F)=NO1 (stereo not given) [N-(2-furanylmethyl)-3-[2-(trifluoromethyl)phenyl]-4,5-dihydroisoxazole-5-carboxamide] | > 50
O=C(Cn1c(-c2ccccn2)nc2ccccc21)NN=Cc1cccnc1 [2-(2-pyridin-2-ylbenzimidazol-1-yl)-N-(pyridin-3-ylmethylideneamino)acetamide] | > 50
CN(Cc1ccon1)C(=O)CC1C(=O)NCCN1CC1CCCCC1 (stereo not given) [2-[1-(cyclohexylmethyl)-3-oxopiperazin-2-yl]-N-(isoxazol-3-ylmethyl)-N-methylacetamide] | > 50
N#CCCC1CCCC=C1N(Cc1ccccc1)C(=O)C(Cl)Cl (stereo not given) [2,2-bis(chloranyl)-N-[6-(2-cyanoethyl)cyclohexen-1-yl]-N-(phenylmethyl)ethanamide] | > 50
COc1ccc(C(=O)Nc2ccc(N3CCN(c4ccc(OC)cc4)CC3)c(C#N)c2)cc1 [N-[3-cyano-4-[4-(4-methoxyphenyl)piperazin-1-yl]phenyl]-4-methoxy-benzamide] | > 50
COc1ccc(N(CC(=O)NCc2ccc(Cl)cc2)S(=O)(=O)c2ccccc2[N+](=O)[O-])c(OC)c1 [N-[(4-chlorophenyl)methyl]-2-(2,4-dimethoxy-N-(2-nitrophenyl)sulfonylanilino)acetamide] | > 50
CC(C)NC(=O)CSc1nc(-c2ccccc2)cs1 [2-[(4-phenyl-1,3-thiazol-2-yl)sulfanyl]-N-propan-2-yl-ethanamide] | > 50
O=S(=O)([N-]c1nc2ccccc2nc1-[n+]1ccn(Cc2ccccc2)c1)c1ccc(Cl)cc1 [(4-chlorophenyl)sulfonyl-[3-[3-(phenylmethyl)imidazol-3-ium-1-yl]quinoxalin-2-yl]azanide] | > 50
CCOc1ccc(-c2c(C)[n+](-c3ccc(OCC)cc3)c3n2CCCCC3)cc1 | 0.958
Cc1n[nH]c(C)c1CCC(=O)NN=Cc1c[nH]c2ccccc12 [3-(3,5-Dimethyl-1H-pyrazol-4-yl)-propionic acid [1-(1H-indol-3-yl)-meth-(E)-ylidene]-hydrazide] | > 50
COc1ccc([N+](=O)[O-])cc1NC(=O)CC1S/C(=N\c2cccc(C)c2C)N(N=Cc2cccc(OC)c2OC)C1=O (stereo not given) | > 50
Oc1ccc(C=NN2CCN(C3c4ccccc4-c4ccccc43)CC2)c(O)c1 [4-({[4-(9H-fluoren-9-yl)-1-piperazinyl]imino}methyl)-1,3-benzenediol] | > 50

Structure (SMILES) | IC50 [µM]
CCc1ccc[n+](-c2[n-]c(=O)sc2C=NNC(N)=O)c1 | > 50
Oc1cc(Sc2ccc(Cl)cc2)c(O)n1-c1ccc2c(c1)OCCO2 | > 50
CCOCCCNS(=O)(=O)c1ccc(NC(=O)c2ccc(OC)c([N+](=O)[O-])c2)cc1 [N-[4-(3-ethoxypropylsulfamoyl)phenyl]-4-methoxy-3-nitrobenzamide] | > 50
COc1cccc(NC(C)(C)c2nnnn2-c2c(C)cccc2C)c1 [N-[2-[1-(2,6-dimethylphenyl)tetrazol-5-yl]propan-2-yl]-3-methoxyaniline] | > 50
C=CCOC(=O)C1C(C)=Nc2[nH]c(=O)[nH]c(=O)c2C1c1ccccc1 (stereo not given) [7-methyl-2,4-dioxo-5-phenyl-5,8-dihydro-1H-pyrido[2,3-d]pyrimidine-6-carboxylic acid prop-2-enyl ester] | > 50
CCc1cccc(NC(=O)Cc2ccc([N+](=O)[O-])cc2)c1 | > 50
CCOC(=O)COc1cc(O)c2c(=O)cc(-c3ccccc3)oc2c1 [2-[(5-hydroxy-4-oxo-2-phenyl-1-benzopyran-7-yl)oxy]acetic acid ethyl ester] | > 50
CCCN(CCC)S(=O)(=O)c1ccc(C(=O)NNc2nc(-c3ccccc3)c3cc(Br)ccc3n2)cc1 [4-[[(6-bromo-4-phenylquinazolin-2-yl)amino]carbamoyl]-N,N-dipropylbenzenesulfonamide] | > 50
COc1cc2c(cc1/C=C/[N+](=O)[O-])OCO2 [MLS000706395] | > 50
O=C(CSc1ncccn1)NN=Cc1cccc(OC2CSC2)c1 | > 50
O=C(NCc1ccccc1)c1ccc(Cl)nc1 | > 50
Cc1ccc(C(=O)NCC(=O)OC(C)C(=O)Nc2ccc(N3CCOCC3)cc2)s1 (stereo not given) [[1-(4-morpholin-4-ylanilino)-1-oxopropan-2-yl] 2-[(5-methylthiophene-2-carbonyl)amino]acetate] | > 50
CCn1c(C)nc2cc(C(=O)NN=C(C)c3ccc(OC)cc3O)ccc21 [1-ethyl-N'-[(1E)-1-(4-methoxy-6-oxidanylidene-cyclohexa-2,4-dien-1-ylidene)ethyl]-2-methyl-benzimidazole-5-carbohydrazide] | > 50
CC/C=C/C(=O)N1CC2(CC(c3cccc(NC(=O)CCCCC)c3)=NO2)C[C@H]1C(N)=O (stereo partly drawn) [(8S)-3-[3-(hexanoylamino)phenyl]-7-[(E)-pent-2-enoyl]-1-oxa-2,7-diazaspiro[4.4]non-2-ene-8-carboxamide] | 9.23
[O-][S+](NC1CCCCC1)C12CC3CC(CC(C3)C1)C2 (stereo not given) | > 50
CC(C=NNC(=O)c1cc(-c2cccn2C)n[nH]1)=Cc1ccccc1 | > 50
CCc1ccccc1-n1c(O)cc(=O)[nH]c1=O | > 50
S=C(NCCc1ccccc1)Nc1ccc(Br)cn1 [3-(5-bromopyridin-2-yl)-1-(2-phenylethyl)thiourea] | > 50
CCSc1nnc(NC(=O)[C@H](C)N2C(=O)C3CC=CCC3C2=O)s1 (stereo partly drawn) [(2S)-2-(1,3-dioxo-3a,4,7,7a-tetrahydroisoindol-2-yl)-N-[5-(ethylthio)-1,3,4-thiadiazol-2-yl]propanamide] | > 50
N#Cc1ccsc1NC(=O)CN(Cc1ccccc1)Cc1ccccc1 [2-[bis(phenylmethyl)amino]-N-(3-cyano-2-thiophenyl)acetamide] | > 50

More lines, now with the values ahead:

IC50 [µM] | Structure (SMILES)
> 50 | CC(C)(C)C(=O)Nc1ccc(C(=O)NN=Cc2ccccc2OC(=O)c2ccccc2)cc1 [SMR000174811]
> 50 | O=C1OC(Nc2ccc(F)c([N+](=O)[O-])c2)c2ccccc21 (stereo not given) [SMR000434389]
> 50 | O=C1SCCC1NC(=O)C(c1ccccc1)c1ccccc1 (stereo not given) [SMR000425361]
0.364 | O=C(Nc1nc(-c2ccc(Cl)s2)cs1)c1cccs1 [SMR000065041]
> 50 | O=C(Cc1cccs1)Nc1nnc(CCc2ccccc2)s1 [MLS000064221]
> 50 | CCc1nnc(NC(=O)c2ccc(NC(=O)C(C)C)cc2)s1 [SMR000290444]
> 50 | CCc1ccc(NC(=O)CCn2cccc2)cc1 [SMR000130982]
> 50 | COc1ccc(S(=O)(=O)NCCOc2cccc3cccnc23)cc1OC [MLS000716779]
> 50 | COc1ccc(CN(Cc2ccc(OC)cc2)C(=O)c2cccs2)cc1 [MLS000860276]
> 50 | Cc1cc(/C=C2\SC(=S)N(C)C2=O)c(C)n1-c1cccc(O)c1 [SMR000415846]
> 50 | O=C1c2ccc(-c3ccc4c(c3)C(=O)N(CCO)C4=O)cc2C(=O)N1CCO [SMR000282940]
> 50 | COc1ccccc1NS(=O)(=O)c1ccc(O)c(C(=O)OCC(=O)c2ccc(Cl)cc2Cl)c1 [SMR000369457]
> 50 | COc1cc([N+](=O)[O-])cc2sc(NC(C)=O)nc12 [MLS000708454]
> 50 | Brc1cccc(CN=Nc2nnn[nH]2)c1 [SMR000279292]
> 50 | Cc1cccc(CN2CCN(CC(=O)N3CCCC3)C2=O)c1 [SMR000130591]
> 50 | Fc1ccc(Nc2ccc3ccccc3n2)c(F)c1 [MLS001004714]
> 50 | Cc1cc(C)cc(NC(=O)c2ccc([N+](=O)[O-])o2)c1 [MLS000710428]
> 50 | CCC1CCC2(CC1)SCC(=O)N2c1ccccc1 (stereo not given) [SMR000425321]
> 50 | CCOC(=O)c1sc(NC(=O)CSC(=S)N2CCN(C)CC2)nc1C [MLS000332299]
6.2 | O=C(Oc1ccc2c(=O)c(Cl)coc2c1)c1ccncc1 [SMR000014947]
> 50 | CCOC(=O)c1sc2ncn(N=Cc3ccc(O)cc3)c(=O)c2c1C [SMR000371630]
> 50 | O=C(Oc1ccc2c(=O)c(Cl)coc2c1)c1cccnc1 [MLS000523505]
> 50 | O=C(c1cc(Cl)nc2ccccc12)N1CCc2ccccc2C1 [SMR000347901]
34.4 | CCCCCC(=O)Nc1cccc([C+]2CC3(CC(C(N)=O)N(C(=O)c4cc([N+](=O)[O-])cc([N+](=O)[O-])c4C)C3)O[N-]2)c1 (stereo not given) [MLS000561980]
> 50 | COc1ccc(OC)c(S(=O)(=O)N2CCCC(C)C2)c1 (stereo not given) [MLS000035543]
> 50 | Cc1ccc(CN2C(=O)C(=NNC(=S)Nc3ccccc3F)c3cc(S(=O)(=O)N4CCOCC4)ccc32)cc1 [SMR000314855]
> 50 | COC(=O)c1[nH]c2cc(OC)ccc2c1NC(=O)CCN1CCCCC1 [MLS000041334]
> 50 | CC1=NN(C(C#N)c2ccc([N+](=O)[O-])cc2)C(C)(C)C1 (stereo not given) [MLS001049177]
> 50 | CONC(=N)c1nonc1N [MLS001049218]
> 50 | Cc1nc2cc(NC(=O)Nc3cccc(F)c3)ccc2n1C [MLS000708492]
